Experimental data: the supplement of paper PMC10307832

Tests used:
Test in all cases: relative viability (nuclei count vs DMSO), 5 days (fraction); higher = more cells survive
[1] = compound: COc1nc(N)nc2c1ncn2[C@@H]1O[C@H](CO)[C@@H](O)[C@@H]1O [Nelarabine] + C[C@@H](Oc1cc(-c2cnn(C3CCNCC3)c2)cnc1N)c1c(Cl)ccc(F)c1Cl [Crizotinib] (partner 1 µM)
In short: (§1)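 Relative viability equals treated-well nuclei counts divided by vehicle-well nuclei counts. Counts came from 4× images of lung cancer cell lines grown in 1536-well plates for 5 days after pin-tool dosing on the day after seeding. Dosing used one drug alone or a fixed anchor-drug dose plus five library-drug doses (not always all listed) in √10 steps, and values are medians of duplicate plates.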

[2] = compound: C=CCn1c(=O)c2cnc(Nc3ccc(N4CCN(C)CC4)cc3)nc2n1-c1cccc(C(C)(C)O)n1 [Adavosertib] + CC(=O)c1c(C)c2cnc(Nc3ccc(N4CCNCC4)cn3)nc2n(C2CCCC2)c1=O [Palbociclib] (partner 0.5 µM)
In short: as §1

[3] = compound: COc1nc(N)nc2c1ncn2[C@@H]1O[C@H](CO)[C@@H](O)[C@@H]1O [Nelarabine] + C[C@]1(O)C[C@@H](c2nc(-c3ccc4ccc(-c5ccccc5)nc4c3)c3c(N)nccn32)C1 [Linsitinib] (partner 1 µM)
In short: as §1

[4] = compound: C=CCn1c(=O)c2cnc(Nc3ccc(N4CCN(C)CC4)cc3)nc2n1-c1cccc(C(C)(C)O)n1 [Adavosertib] + CC1(C)CCC(c2ccc(Cl)cc2)=C(CN2CCN(c3ccc(C(=O)NS(=O)(=O)c4ccc(N[C@H](CCN5CCOCC5)CSc5ccccc5)c(S(=O)(=O)C(F)(F)F)c4)cc3)CC2)C1 [Navitoclax] (partner 0.5 µM)
In short: as §1

Row | Cell Line | relative viability ([1]; first compound 0.01 µM) | relative viability ([1]; first compound 0.03162 µM) | relative viability ([1]; first compound 0.1 µM) | relative viability ([1]; first compound 0.3162 µM) | relative viability ([1]; first compound 1 µM) | relative viability ([2]; first compound 0.01 µM) | relative viability ([2]; first compound 0.03162 µM) | relative viability ([2]; first compound 0.1 µM) | relative viability ([2]; first compound 0.3162 µM) | relative viability ([3]; first compound 0.01 µM) | relative viability ([3]; first compound 0.03162 µM) | relative viability ([3]; first compound 0.1 µM) | relative viability ([3]; first compound 0.3162 µM) | relative viability ([3]; first compound 1 µM) | relative viability ([4]; first compound 0.01 µM) | relative viability ([4]; first compound 0.03162 µM) | relative viability ([4]; first compound 0.1 µM) | relative viability ([4]; first compound 0.3162 µM)
1 | NCI-H520 | 0.607 | 0.519 | 0.871 | 1.07 | 0.851 | 0.22 | 0.214 | 0.229 | 0.246 | 1.19 | 0.889 | 1.24 | 1.08 | 1.05 | 1.12 | 1.1 | 1.09 | 0.791
2 | HCC-44 | 0.989 | 0.782 | 0.783 | 0.819 | 0.739 | 0.989 | 1.01 | 1.03 | 0.966 | 0.712 | 0.678 | 0.678 | 0.657 | 0.691 | 1.02 | 1.01 | 1.01 | 1.06
3 | NCI-H2087 | 1.22 | 0.965 | 0.88 | 0.819 | 0.84 | 0.218 | 0.217 | 0.263 | 0.243 | 1.06 | 0.897 | 1.06 | 1.05 | 0.914 | 1.09 | 1.14 | 1.09 | 0.937
4 | CAL-12T | 0.517 | 0.514 | 0.61 | 0.806 | 0.549 | 0.403 | 0.492 | 0.425 | 0.262 | 0.857 | 0.931 | 0.809 | 0.778 | 0.832 | 1.03 | 1.33 | 1.19 | 1.02
5 | NCI-H1355 | 1.44 | 0.879 | 1.02 | 1.15 | 1.08 | 0.417 | 0.401 | 0.395 | 0.408 | 1.04 | 0.688 | 0.739 | 0.822 | 0.887 | 0.996 | 0.848 | 0.987 | 0.852
6 | HARA | 1.21 | 1.09 | 0.909 | 1.24 | 1.12 | 0.21 | 0.271 | 0.349 | 0.265 | 1.29 | 0.814 | 0.771 | 1.18 | 0.941 | 1.11 | 1.11 | 1.13 | 1.1
7 | NCI-H2085 | 0.966 | 0.618 | 0.766 | 0.88 | 0.965 | 0.479 | 0.458 | 0.519 | 0.577 | 1.3 | 0.747 | 0.848 | 0.883 | 0.867 | 1.28 | 1.05 | 1.06 | 1.11
8 | IA-LM | 1.08 | 0.674 | 0.844 | 0.876 | 0.791 | – | – | – | – | 0.847 | 0.838 | 0.68 | 0.737 | 0.667 | 0.821 | 0.742 | 0.976 | 0.668
9 | LCLC-103H | 1.12 | 1.03 | 1.07 | 1.08 | 1.02 | 0.498 | 0.478 | 0.469 | 0.464 | 1.22 | 1.11 | 1.08 | 1.02 | 1.11 | – | – | – | –
10 | NCI-H2405 | 0.918 | 0.824 | 0.769 | 0.784 | 0.818 | – | 0.492 | 0.555 | 0.58 | 0.98 | 0.853 | 0.898 | 0.966 | 0.872 | 0.869 | 1.01 | 0.98 | 0.996
11 | NCI-H1666 | 1.03 | 0.679 | 0.949 | 0.975 | 1.03 | 0.613 | 0.64 | 0.662 | 0.699 | 0.911 | 0.766 | 0.906 | 0.797 | 0.788 | 0.927 | 0.83 | 0.935 | 0.673
12 | Calu-6 | 0.848 | 0.613 | 0.879 | 0.825 | 0.826 | – | – | – | – | 1.22 | 1.07 | 0.897 | 0.997 | 1 | 0.819 | 0.898 | 0.88 | 0.239
13 | BEN | 1.37 | 0.869 | 0.896 | 0.88 | 0.929 | 0.452 | 0.434 | 0.473 | 0.501 | 1.27 | 0.818 | 1 | 1.04 | 1.07 | 0.0632 | 0.0724 | 0.0727 | 0.0601
14 | 201T | 1.04 | 0.968 | 0.84 | 1.06 | 1.02 | 0.336 | 0.356 | 0.364 | 0.367 | 1.18 | 0.942 | 1.07 | 0.958 | 0.96 | 1.24 | 1.18 | 1.26 | 1.18
15 | NCI-H322M | 0.884 | 0.88 | 0.853 | 0.948 | 0.837 | 0.439 | 0.479 | 0.417 | 0.463 | 1.05 | 1.11 | 0.816 | 0.901 | 0.924 | – | 1.25 | 1.12 | 0.953
16 | NCI-H1792 | 0.821 | – | 1.29 | 1.15 | 1.03 | – | 0.661 | 0.779 | 0.829 | 0.621 | – | 0.548 | 0.702 | 0.716 | 0.529 | 0.659 | 0.655 | 0.643
17 | NCI-H358 | 0.58 | 0.481 | 0.4 | 0.573 | 0.514 | 0.15 | 0.137 | 0.0992 | 0.128 | 0.891 | 0.613 | 0.694 | 0.865 | 0.74 | – | – | – | –
18 | NCI-H2347 | 0.812 | 0.547 | 0.654 | 0.649 | 0.833 | 0.41 | 0.419 | 0.444 | 0.44 | 1.08 | 1.02 | 0.968 | 0.939 | 1.04 | 0.811 | 0.804 | 0.954 | 0.791
19 | NCI-H1793 | – | – | – | – | – | 0.293 | 0.293 | 0.298 | 0.275 | 1.3 | 0.801 | 0.863 | 0.724 | 0.84 | 0.338 | 0.405 | 0.422 | 0.425
